The results in this text go back to US20200023031A1, “COMPOSITION FOR ANTI-PANCREATIC CANCER AND ANTI-PANCREATIC ADJUVANT COMPRISING ALLOFERON” (AT-Pharma Co., Ltd., priority 2018, published 2020).

Series [1] concerns Panc-1 pancreatic ductal adenocarcinoma cell line. The series can be described thus: Annexin V apoptosis assay, Panc-1. Type of series: cell-based. The procedure: (§1) AsPC-1 (FIG. 4(a)) and Panc-1 (FIG. 4(b)), two pancreatic ductal adenocarcinoma cell line, were cultured for week in the presence or absence of […] of alloferon, and then 5×10^5 cells were cultured with 250 nM of gemcitabine for 36 hrs. To investigate whether alloferon increases the sensitivity of these cell lines against gemcitabine, the degree of cell death was examined by an Annexin V-7AAD assay. Cells were collected and washed three times with cold phosphate-buffered saline (PBS) and then resuspended in 1× Annexin V binding buffer at a concentration of 1×10^6 cells/ml (BD Biosciences). Transfer 100 μl of the solution (1×10^5 cells) to a 5 ml culture tube. Add 5 μl of FITC-conjugated Annexin V and incubated for 15 min at room temperature in the dark. Add 400 μl of 1× Annexin V binding buffer to each tube. After 1 μl of propidium iodide (PI) was added just prior to analyze by flow cytometry. Apoptotic cells were analyzed with LSRII flow cytometer (BD Biosciences) with excitation at 488 nm and emission at 525 nm.

For series [2], the system named is AsPC-1 cells. As to the kind of experiment: AsPC-1 xenograft model in Balb/C (nu/nu) mice. The class given is in vivo. The procedure:
(§2) The anti-tumor effect of concomitant alloferon and gemcitabine treatment was also assessed by using xenograft animal model.
(§3) Tumor burdens from each experimental animals were excised and compared its volumes (FIG. 8).

The test system of series [3] is AsPC-1 cells. As to the kind of experiment: Mitochondrial membrane potential assay, DiOC6(3) staining. Type of series: cell-based. Conditions: 0.5 mg/ml alloferon for week, 250 nM gemcitabine 36 hours. The procedure:
The effect of adjuvant treatment of alloferon and gemcitabine on mitochondrial function was also studied. AsPC-1 cells were cultured for week in the presence or absence of 0.5 mg/ml of alloferon. Then 5×10^5 cells were cultured with 250 nM of gemcitabine for 36 hours. The synergistic effect of alloferon with gemcitabine on the decrease of mitochondrial membrane potential, a general phenomenon associated with cell death by chemotherapeutic drugs, was investigated by staining with DiOC6(3), a green-fluorescent, lipophilic dye (ThermoFisher Scientific). Cells were collected and washed three times with PBS. Then 1×10^6 cells were resuspended in 1 ml freshly prepared 4% paraformaldehyde diluted from stock using PBS for 10 minutes at room temperature and then washed with 1 ml pre-warmed (37° C.) PBS three times. The DiOC6 stock solution was diluted into PBS to make 0.1 μM working solution. The cells were suspended at a density of 1×10^6 cells/ml in dye working solution and protected from light. The cells were incubated at 37° C. for 15 minutes. The cell suspensions were centrifuged at 130×g for 5 minutes. The supernatant was removed and the cells were gently resuspended in 1 ml pre-warmed PBS. The cells were analyzed with LSRII flow cytometer (BD Biosciences) with excitation at 488 nm and emission at 525 nm.

The next series relates to Panc-1 cells. The series can be described thus: Panc-1 xenograft model in Balb/C (nu/nu) mice. The class given is in vivo. The procedure:
as §2, §3

For series [4], the system named is AsPC-1 pancreatic ductal adenocarcinoma cell line. The series can be described thus: Annexin V apoptosis assay, AsPC-1. The class given is cell-based. The procedure:
as §1

The mark [5] stands for this setting: gemcitabine 250 nM for 36 hrs, alloferon 0.5 μg/ml for a week.
[6] abbreviates: subcutaneous, female Balb/C (nu/nu), calipers every 3-4 days.

With `Nc1ccn([C@@H]2O[C@H](CO)[C@@H](O)C2(F)F)c(=O)n1` [gemcitabine], the “cytotoxic effects, PANC-1” value in series [1] (gemcitabine 250 nM) is given as “do not have cytotoxic effects”. In addition, the “apoptosis, Panc-1” value in series [1] (setting [5]) is recorded as “do not induce apoptosis”. For the same compound, the “tumor growth (tumor volume), AsPC-1 xenograft” value in the series on AsPC-1 cells [2] (setting [6]) was “does not effectively suppress growth”. Besides, the “excised tumor burden volume, AsPC-1 xenograft” value in the series on AsPC-1 cells [2] (tumor burdens excised, FIG. 8) is on record as “does not effectively suppress growth”. Further, the “mitochondrial membrane potential / mitochondrial dysfunction” value in the series on AsPC-1 cells [3] is listed as “does not induce mitochondrial dysfunction”. In addition, in the series on Panc-1 cells (setting [6]), the “tumor growth (tumor volume), Panc-1 xenograft” value is “does not effectively suppress growth”. Also, the “excised tumor burden volume, Panc-1 xenograft” value with Panc-1 cells (tumor burdens excised, FIG. 8) is listed as “does not effectively suppress growth”. Also, the “cytotoxic effects, ASPC-1” value in series [4] (gemcitabine 250 nM) is “do not have cytotoxic effects”. Further, in series [4] (setting [5]), the “apoptosis, AsPC-1” value was “do not induce apoptosis”.
